What was measured:
[1] = compound: CC[C@H](Nc1ncnc2[nH]cnc12)c1nc2cccc(F)c2c(=O)n1-c1ccccc1 [Idelalisib] + Nc1nc2[nH]cc(CCc3ccc(C(=O)N[C@@H](CCC(=O)O)C(=O)O)cc3)c2c(=O)[nH]1 [Pemetrexed] (partner 0.2 µM); assay: relative viability (nuclei count vs DMSO), 5 days (fraction); higher = more cells survive
Procedure, shortened: (§1)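 Medians of duplicate plates are given as relative viability. That measure is the nuclei count in treated wells divided by the count in vehicle wells. Counts were taken on 4× images of lung cancer cell lines in 1536-well plates, 5 days after pin-tool dosing the day after seeding with one drug alone or a fixed anchor-drug dose plus five library-drug doses (not always all listed) in √10 steps.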

[2] = compound: CC[C@H](Nc1ncnc2[nH]cnc12)c1nc2cccc(F)c2c(=O)n1-c1ccccc1 [Idelalisib] + O=C(c1cc(Cc2n[nH]c(=O)c3ccccc23)ccc1F)N1CCN(C(=O)C2CC2)CC1 [Olaparib] (partner 8 µM); assay: as above
Procedure, shortened: as §1

Cell Line | relative viability ([1]; first compound 0.04 µM) | relative viability ([1]; first compound 0.1265 µM) | relative viability ([1]; first compound 0.4 µM) | relative viability ([1]; first compound 1.265 µM) | relative viability ([1]; first compound 4 µM) | relative viability ([2]; first compound 0.04 µM) | relative viability ([2]; first compound 0.1265 µM) | relative viability ([2]; first compound 0.4 µM) | relative viability ([2]; first compound 1.265 µM) | relative viability ([2]; first compound 4 µM)
NCI-H322M | 0.648 | 0.634 | 0.639 | 0.628 | 0.623 | 0.652 | 0.813 | 0.781 | 0.747 | 0.77
NCI-H2405 | 1.13 | 1.06 | 0.986 | 0.974 | 1.09 | 0.893 | 0.885 | 0.76 | 0.868 | 0.836
NCI-H1666 | 0.821 | 0.835 | 0.844 | 0.847 | 0.996 | 0.704 | 0.758 | 0.733 | 0.747 | 0.724
NCI-H358 | 0.18 | 0.171 | 0.182 | 0.168 | 0.157 | 0.562 | 0.586 | 0.522 | 0.606 | 0.516
H3255 | 0.692 | 0.551 | 0.55 | 0.561 | 0.488 | 0.567 | 0.555 | 0.534 | 0.573 | 0.513
NCI-H1563 | 0.845 | 0.73 | 0.714 | 0.757 | 0.732 |  |  |  |  | 
LCLC-103H | 0.508 | 0.456 | 0.471 | 0.505 | 0.477 | 0.728 | 0.791 | 0.721 | 0.757 | 0.705
NCI-H2347 | 0.436 | 0.423 | 0.436 | 0.452 | 0.402 | 0.591 | 0.659 | 0.528 | 0.644 | 0.464
LK-2 | 0.344 | 0.14 |  | 0.324 | 0.404 | 0.874 | 0.631 |  | 0.983 | 0.609
NCI-H2342 | 0.853 | 0.74 | 0.717 | 0.706 | 0.765 | 0.442 | 0.481 | 0.457 | 0.421 | 0.407
HCC-15 | 0.242 | 0.22 | 0.213 | 0.22 | 0.221 | 0.743 | 0.583 | 0.699 | 0.799 | 0.707
SW 1573 | 0.825 | 0.848 | 0.802 | 0.702 | 0.739 | 0.465 | 0.426 | 0.364 | 0.521 | 0.431
NCI-H838 | 0.253 | 0.238 | 0.225 | 0.237 | 0.257 | 0.779 | 0.794 | 0.745 | 0.775 | 0.564
RERF-LC-KJ | 0.46 | 0.44 | 0.46 | 0.491 | 0.448 | 0.873 | 0.941 | 0.864 | 0.892 | 0.814
ChaGo-K-1 | 0.254 | 0.252 | 0.268 | 0.254 | 0.264 | 0.347 | 0.399 | 0.472 | 0.38 | 0.379
NCI-H441 | 0.247 | 0.233 |  | 0.285 | 0.251 | 0.532 | 0.582 |  | 0.618 | 0.55
NCI-H2170 | 0.292 | 0.254 | 0.268 | 0.262 | 0.29 | 0.606 | 0.679 | 0.643 | 0.558 | 0.515
PC-14 | 0.15 | 0.126 | 0.148 | 0.142 | 0.135 | 0.268 | 0.232 | 0.239 | 0.384 | 0.297

Cell Line | relative viability ([1]; first compound 0.04 µM) | relative viability ([1]; first compound 0.1265 µM) | relative viability ([1]; first compound 0.4 µM) | relative viability ([1]; first compound 1.265 µM) | relative viability ([1]; first compound 4 µM) | relative viability ([2]; first compound 0.04 µM) | relative viability ([2]; first compound 0.1265 µM) | relative viability ([2]; first compound 0.4 µM) | relative viability ([2]; first compound 1.265 µM) | relative viability ([2]; first compound 4 µM)
NCI-H2009 | 0.99 | 0.996 | 1.03 | 1.09 | 0.991 | 0.639 | 0.712 | 0.672 | 0.74 | 0.516
Calu-6 |  |  |  |  |  | 0.669 | 0.61 | 0.533 | 0.657 | 0.53
NCI-H1395 | 0.915 | 0.859 | 0.804 | 0.83 | 0.748 | 0.456 | 0.455 | 0.445 | 0.43 | 0.41
NCI-H1437 | 0.34 | 0.315 | 0.311 | 0.317 | 0.268 | 0.618 | 0.636 | 0.634 | 0.658 | 0.607
NCI-H647 | 0.166 | 0.144 | 0.14 | 0.154 | 0.159 | 0.623 | 0.602 | 0.489 | 0.614 | 0.281
NCI-H1793 | 0.821 | 0.95 |  | 0.81 | 0.627 | 0.957 | 0.764 |  | 0.566 | 0.529
SK-MES-1 | 0.993 | 0.997 | 0.878 | 0.433 | 0.909 | 0.736 | 0.711 | 0.679 | 0.636 | 0.448
NCI-H2087 | 0.742 | 0.671 | 0.657 | 0.637 | 0.695 | 0.498 | 0.628 | 0.517 | 0.658 | 0.591
BEN | 0.824 | 0.709 | 0.895 | 0.736 | 0.724 | 1.02 | 0.955 | 1.02 | 1.12 | 0.847
NCI-H3122 | 0.21 | 0.207 | 0.196 | 0.188 | 0.198 | 0.611 | 0.626 | 0.669 | 0.584 | 0.49
NCI-H1299 |  |  |  |  |  | 1.01 | 0.982 | 0.941 | 1.02 | 1.06
LCLC-97TM1 | 0.182 | 0.182 | 0.15 | 0.155 | 0.199 | 0.328 | 0.349 | 0.324 | 0.347 | 0.378
NCI-H2228 | 0.369 | 0.323 | 0.407 | 0.312 | 0.325 | 0.911 | 0.985 | 0.589 | 0.871 | 0.538
EBC-1 |  |  |  |  |  | 0.721 | 0.777 | 0.763 | 0.65 | 0.588
COR-L23 | 0.186 | 0.203 | 0.199 | 0.204 | 0.182 | 0.368 | 0.326 | 0.348 | 0.327 | 0.316
EMC-BAC-2 | 0.484 | 0.44 | 0.477 | 0.435 | 0.43 | 0.459 | 0.518 | 0.477 | 0.472 | 0.476
NCI-H1944 | 0.724 | 0.58 | 0.516 | 0.484 | 0.586 | 0.427 | 0.395 | 0.388 | 0.394 | 0.406

— the supplement of paper PMC10307832
